Measured values: the supplement of paper PMC10307832

Key:
Assay in all cases: relative viability (nuclei count vs DMSO), 5 days (fraction); higher = more cells survive
[1] = compound: Cc1ccccc1C(C(=O)NC1CCCCC1)N(C(=O)Cn1ccnc1C)c1cccc(F)c1 [IDH-C35] + CS(=O)(=O)CCNCc1ccc(-c2ccc3ncnc(Nc4ccc(OCc5cccc(F)c5)c(Cl)c4)c3c2)o1 [Lapatinib] (partner 2 µM)
How it was run: (§1)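 Lung cancer cell lines in 1536-well plates got either a single drug or a fixed anchor-drug dose together with five library-drug doses (not always all listed) in √10 steps, by pin tool, on the day after seeding. Nuclei were counted after 5 days, and relative viability is the treated-to-vehicle ratio of nuclei counts. Values are medians of duplicate plates.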

[2] = compound: Cc1ccccc1C(C(=O)NC1CCCCC1)N(C(=O)Cn1ccnc1C)c1cccc(F)c1 [IDH-C35] + CC(C)C[C@H](NC(=O)[C@H](Cc1ccccc1)NC(=O)c1cnccn1)B(O)O [Bortezomib] (partner 0.002 µM)
How it was run: as §1

[3] = compound: CC1=C(C(=NN1)C)CC2=C(C3=C(S2)N(C(=O)N(C3=O)C)CC(C)C)C(=O)N4C[C@@H](CO4)O + Cc1cc(Nc2cc(N3CCN(C)CC3)nc(Sc3ccc(NC(=O)C4CC4)cc3)n2)n[nH]1 [Tozasertib] (partner 0.1 µM)
How it was run: as §1

[4] = compound: CC1=C(C(=NN1)C)CC2=C(C3=C(S2)N(C(=O)N(C3=O)C)CC(C)C)C(=O)N4C[C@@H](CO4)O + N=C(N)NC(=N)NCCc1ccccc1 [Phenformin] (partner 250 µM)
How it was run: as §1

Cell Line | relative viability ([1]; first compound 0.08 µM) | relative viability ([1]; first compound 0.253 µM) | relative viability ([1]; first compound 0.8 µM) | relative viability ([1]; first compound 2.53 µM) | relative viability ([1]; first compound 8 µM) | relative viability ([2]; first compound 0.08 µM) | relative viability ([2]; first compound 0.253 µM) | relative viability ([2]; first compound 0.8 µM) | relative viability ([2]; first compound 2.53 µM) | relative viability ([2]; first compound 8 µM) | relative viability ([3]; first compound 0.0025 µM) | relative viability ([3]; first compound 0.007906 µM) | relative viability ([3]; first compound 0.025 µM) | relative viability ([3]; first compound 0.07906 µM) | relative viability ([3]; first compound 0.25 µM) | relative viability ([4]; first compound 0.0025 µM) | relative viability ([4]; first compound 0.007906 µM) | relative viability ([4]; first compound 0.025 µM) | relative viability ([4]; first compound 0.07906 µM) | relative viability ([4]; first compound 0.25 µM)
HARA | 0.784 | 0.84 | 0.828 | 0.78 | 0.809 | 1.18 | 1.04 | 1.13 | 1.15 | 1.05 | 0.129 | 0.125 | 0.105 | 0.111 | 0.112 | 0.365 | 0.378 | 0.309 | 0.234 | 0.246
IA-LM | 0.721 | 1.03 | 0.721 | 0.809 | 0.535 | 0.855 | 0.87 | 0.844 | 0.924 | 0.769 |  |  |  |  |  |  |  |  |  | 
LCLC-103H |  |  |  |  |  | 1.09 | 1.14 | 1.07 | 0.98 | 0.973 | 0.544 | 0.564 | 0.505 | 0.551 | 0.543 | 0.329 | 0.367 | 0.393 | 0.341 | 0.317
LK-2 | 0.836 | 1.01 | 0.758 | 0.735 | 0.932 |  |  |  |  |  | 0.19 | 0.224 | 0.175 | 0.198 | 0.182 | 0.304 | 0.321 | 0.195 | 0.187 | 0.263
NCI-H358 | 0.502 | 0.503 | 0.445 | 0.534 | 0.508 |  |  |  |  |  | 0.12 | 0.0943 | 0.0965 | 0.11 | 0.112 | 0.35 | 0.395 | 0.337 | 0.311 | 0.36
NCI-H441 |  |  |  |  |  | 0.524 |  | 0.617 | 0.508 | 0.447 | 0.657 | 0.647 | 0.575 | 0.664 | 0.623 | 0.902 | 0.943 | 0.799 | 0.847 | 0.865
NCI-H522 |  |  |  |  |  |  |  |  |  |  | 0.516 | 0.537 | 0.545 | 0.419 | 0.418 | 0.551 | 0.686 | 0.376 | 0.327 | 0.265
NCI-H1299 | 1.02 | 0.975 | 0.967 | 0.936 | 0.898 | 1.02 | 1.01 | 1.03 | 0.964 | 1.03 |  |  |  |  |  |  |  |  |  | 
NCI-H1395 | 1 | 0.928 | 1.08 | 1.09 | 0.891 |  |  |  |  |  | 0.757 | 0.681 | 0.581 | 0.592 | 0.599 | 0.336 | 0.316 | 0.298 | 0.314 | 0.312
NCI-H1563 | 1.11 | 0.955 | 0.96 | 0.912 | 1.09 | 0.854 | 0.937 | 0.844 | 0.909 | 0.757 |  |  |  |  |  | 0.667 | 0.666 | 0.729 | 0.711 | 0.667
NCI-H1623 |  |  |  |  |  |  |  |  |  |  | 0.463 | 0.494 | 0.467 | 0.398 | 0.49 | 0.465 | 0.408 | 0.514 | 0.525 | 0.378
NCI-H1648 |  |  |  |  |  |  |  |  |  |  | 0.462 | 0.542 | 0.754 | 0.37 | 0.458 |  |  |  |  | 
NCI-H1703 | 1.06 | 1.06 | 0.866 | 0.831 | 1.1 | 0.326 | 0.346 | 0.422 | 0.43 | 0.261 |  |  |  |  |  |  |  |  |  | 
NCI-H1792 | 0.806 | 0.893 | 0.87 | 0.98 | 0.973 | 0.921 | 0.906 | 0.95 | 0.909 | 0.983 |  |  |  |  |  | 0.259 | 0.173 | 0.127 | 0.172 | 0.155
NCI-H1793 | 0.652 | 0.648 | 0.833 | 0.674 | 0.652 |  |  |  |  |  | 0.453 | 0.28 | 0.327 | 0.271 | 0.24 | 0.211 | 0.213 | 0.138 | 0.138 | 0.135
NCI-H1944 | 0.858 | 0.824 | 0.81 | 0.774 | 0.832 |  |  |  |  |  | 0.263 | 0.269 | 0.246 | 0.25 | 0.253 | 0.184 | 0.222 | 0.186 | 0.195 | 0.175
NCI-H2170 | 0.254 | 0.259 | 0.28 | 0.274 | 0.272 |  |  |  |  |  | 0.67 | 0.734 | 0.736 | 0.599 | 0.8 | 0.377 | 0.384 | 0.432 | 0.378 | 0.378
NCI-H2342 |  |  |  |  |  |  |  |  |  |  | 0.599 | 0.421 | 0.481 | 0.558 | 0.552 | 0.493 | 0.532 | 0.398 | 0.384 | 0.401
SK-MES-1 | 0.435 | 0.49 | 0.446 | 0.481 | 0.413 |  |  |  |  |  | 0.904 | 0.983 | 0.872 | 1.05 | 0.908 | 0.701 | 0.671 | 0.629 | 0.686 | 0.704
SW 900 |  |  |  |  |  |  |  |  |  |  | 0.57 | 0.558 | 0.536 | 0.524 | 0.591 | 0.735 | 0.675 | 0.535 | 0.779 | 0.589
